Reference: the NIST ThermoML archive (doi:10.1021/je700670k)

Details: Liquid, Vibrating tube method

CCC[N+]1(C)CCCC1.O=S(=O)([N-]S(=O)(=O)C(F)(F)F)C(F)(F)F
mass density [kg/m3]
Details | 293.15 K | 303.15 K | 313.15 K | 323.15 K | 333.15 K | 353.15 K | 393.15 K
100 kPa | 1438.6 | 1428.6 | 1418.6 | 1408.7 | 1399 | 1380 | 1343.2
1000 kPa | 1439.3 | 1429.3 | 1419.3 | 1409.4 | 1399.7 | 1380.8 | 1344
2000 kPa | 1440 | 1430 | 1420.1 | 1410.1 | 1400.5 | 1381.7 | 1344.9
3000 kPa | 1440.7 | 1430.8 | 1420.9 | 1411 | 1401.4 | 1382.5 | 1345.8
4000 kPa | 1441.4 | 1431.6 | 1421.7 | 1411.8 | 1402.2 | 1383.4 | 1346.8
5000 kPa | 1442.1 | 1432.2 | 1422.5 | 1412.6 | 1403 | 1384.3 | 1347.8
7500 kPa | 1444 | 1434.1 | 1424.3 | 1414.4 | 1405 | 1386.4 | 1350.2
10000 kPa | 1445.8 | 1435.9 | 1426.3 | 1416.3 | 1407 | 1388.5 | 1352.5
15000 kPa | 1449.2 | 1439.4 | 1429.9 | 1420.1 | 1410.8 | 1392.6 | 1357.1
20000 kPa | 1452.6 | 1443 | 1433.4 | 1423.8 | 1414.6 | 1396.6 | 1361.5
25000 kPa | 1456 | 1446.4 | 1436.9 | 1427.4 | 1418.3 | 1400.4 | 1365.8
30000 kPa | 1459.2 | 1449.7 | 1440.3 | 1431 | 1421.9 | 1404.2 | 1370
35000 kPa | 1462.3 | 1453 | 1443.6 | 1434.4 | 1425.4 | 1407.9 | 1374
